Experimental data from publication PMC13538172, “Zonisamide nanodiamonds for brain targeting: A comprehensive study utilising in silico, in vitro, in vivo, and molecular investigation for successful nose-to-brain delivery for epilepsy management” (Drug Delivery and Translational Research, 2025).

Assays:
[1] = tested on: LncRNA PVT-1; experiment: Hippocampal LncRNA PVT-1 expression by quantitative RT-PCR in TLE rats; type: in vivo; conditions: relative quantitation 2-∆∆Ct; TLE control 5.7 folds of normal rats
Protocol: (§1) Temporal lobe epilepsy (TLE) was induced in rats using the pilocarpine model according to the method of […] et al.. Prior to the experiment, rats were housed in plastic cages at October University for Modern Science and Arts under controlled environmental conditions (temperatures of 25°±3°C and 50% humidity) with free access to water and softened standard pellet chow. The rats were injected with pilocarpine (300 mg/kg; i.p.) to induce status epilepticus (SE). Atropine (1 mg/kg; i.p.) was injected 30 minutes before pilocarpine injection to antagonize the peripheral muscarinic activity. SE was defined using the modified Racine scale by observing seizure severity categorized as stages 4 and 5. […] For quantitative RT-PCR analysis of miR-199, Sirtuin 1 (Sirt-1) and long non-coding RNA of plasmacytoma variant translocation1 (LncRNA PVT-1), RNA was isolated from the brain hippocampus tissue with direct-zol RNA Miniprep Plus (CAT no. R2072) and reverse-transcribed into cDNA with the reverse transcriptase (CAT no. 12594100) according to the manufacturer instructions. […] Quantitative reverse transcriptase PCR was performed using a Power SYBR Green PCR Master Mix (CFX96 Instrument; Bio-Rad, USA). The relative quantitation (RQ) of each target gene is quantified according to the 2-ΔΔCt method calculation.

[2] = design: method as in PMID 10837713; conditions: following systemic absorption; cited from earlier work
[3] = tested on: neuron-specific enolase (NSE); experiment: Serum NSE by ELISA in TLE rats; type: in vivo; conditions: compared to the TLE control rats; intranasal, 7 days
Protocol: Temporal lobe epilepsy (TLE) was induced in rats using the pilocarpine model according to the method of Arshad et al.. Prior to the experiment, rats were housed in plastic cages at October University for Modern Science and Arts under controlled environmental conditions (temperatures of 25°±3°C and 50% humidity) with free access to water and softened standard pellet chow. The rats were injected with pilocarpine (300 mg/kg; i.p.) to induce status epilepticus (SE). Atropine (1 mg/kg; i.p.) was injected 30 minutes before pilocarpine injection to antagonize the peripheral muscarinic activity. SE was defined using the modified Racine scale by observing seizure severity categorized as stages 4 and 5. […] The SE seizures were left to last for 3 hours to induce hippocampus damage, after which diazepam (10 mg/kg; i.p.) was injected to attenuate the seizures. Lubricant ophthalmic gel was applied with a cotton swab to each eye to prevent the corneas from drying out during the seizures. The rats were hydrated with sterile Ringer's lactate injections (1 mL, i.p.) for 3 days post-SE induction. […]
The serum levels of neuron-specific enolase (NSE), matrix metallopeptidase-9 (MMP-9), neurofilament light polypeptide (NEFL), and brain-derived neurotrophic factor (BDNF) were measured by ELISA technique using the following standard kits CAT no. […]

[4] = tested on: Sirtuin 1 (Sirt-1); experiment: Hippocampal SIRT-1 expression by quantitative RT-PCR in TLE rats; type: in vivo; conditions: relative quantitation 2-∆∆Ct; TLE control 0.16 fold of normal
Protocol: as §1

NS(=O)(=O)Cc1noc2ccccc12 [ZNS, Zonisamide]
hippocampal level of LncRNA-PVT1 [1]: 3.4 folds
Oldendorf Brain Uptake Index [2]: 28%
decrease in serum level of NSE [3]: 30.6%
hippocampal SIRT-1 level [4]: 0.47 folds
